What was measured:
[1] = target: T1, KOR (Homo sapiens, UniProt P41145); experiment: High content imaging based β-arrestin translocation assay, KOR agonist (KOR HCS); format: cell-based; settings: n = 2, read-out: Average Potency KOR HCS
Description: (§1) In this campaign, two assay platforms were employed to evaluate KOR activity and selectivity: the KOR1 DISCOVERX β-Arrestin […] assay and an imaging based β-arrestin translocation assay for confirmatory and selectivity assays. The KOR1 DISCOVERX β-Arrestin […] assay is a commercial platform for direct measurement of GPCR (G protein-coupled receptor) activation by detection of β-Arrestin binding to the KOR. […] In cells that stably express these fusion proteins, ligand stimulation results in the recruitment of β-Arrestin by the GPCR. This interaction encourages the complementation of the two β-galactosidase fragments resulting in the formation of a functional enzyme that converts substrate in the assay medium to a detectable signal. The imaging based high-content β-arrestin translocation assay is based upon the redistribution of β-Arrestin linked to green fluorescent protein (GFP) to the cell surface and detection (Barak, et al. (1997) J. Biol. Chem. 272:27497-27500).
(§2) Initially, a portion (approximately 290,000 compounds) of the MLSMR compound collection was tested in the KOR1 DISCOVERX β-arrestin primary kappa opioid (KOP) agonist and antagonist screens (PUBCHEM AID 1777 and 1778, respectively) at a single concentration point (10 μM). […] These compounds were concurrently tested in a β-galactosidase counterscreen assay (PUBCHEM AID 1966) to assess the possibility that these compounds might inhibit the reporting enzyme. […] The KOR:DOR:MOR selectivity of the compounds was determined using the analogous β-arrestin translocation assays for the DOR (PUBCHEM AID 2370 and 2357, for agonists and antagonist, respectively) and the MOR (PUBCHEM AID 2352 and 2420, for agonists and antagonists, respectively).

[2] = target: T2, MOR (Homo sapiens, UniProt P35372); experiment: High content imaging based β-arrestin translocation assay, MOR agonist (MOR HCS); format: cell-based; settings: n = 2, read-out: Average Potency MOR HCS
T2 sequence (P35372 whole entry): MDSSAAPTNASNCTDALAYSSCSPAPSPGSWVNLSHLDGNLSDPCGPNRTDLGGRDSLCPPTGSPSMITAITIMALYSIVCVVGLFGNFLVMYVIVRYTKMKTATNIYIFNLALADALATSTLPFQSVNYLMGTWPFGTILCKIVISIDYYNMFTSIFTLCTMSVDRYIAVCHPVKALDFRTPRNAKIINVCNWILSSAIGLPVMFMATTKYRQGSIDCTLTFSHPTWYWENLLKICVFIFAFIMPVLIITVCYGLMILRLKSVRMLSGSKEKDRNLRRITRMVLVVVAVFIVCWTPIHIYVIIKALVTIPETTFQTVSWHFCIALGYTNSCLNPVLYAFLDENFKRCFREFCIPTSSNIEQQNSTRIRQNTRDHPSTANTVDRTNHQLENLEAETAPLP
Description: as §1, §2

[3] = target: T1, KOR; experiment: DISCOVERX β-arrestin […] assay, agonist mode (KOR DRx); format: cell-based; settings: for EC50: agonist, n = 3, read-out: Average Potency KOR DRx; for Emax (%): at highest concentration tested, compared to dynorphin A (Emax=100%)
Description: as §1, with “signal.” for “signal. The imaging based high-content β-arrestin translocation assay is based upon the redistribution of β-Arrestin linked to green fluorescent protein (GFP) to the cell surface and detection (Barak, et al. (1997) J. Biol. Chem. 272:27497-27500).”

[4] = target: T1, KOR; experiment: Binding affinity Ki of Table 9
[5] = target: T2, MOR; experiment: High content imaging β-arrestin translocation assay, MOR antagonist (MOR HCS); format: cell-based; settings: antagonist; average; read-out: Potency, Antitarget MOR HCS
Description: as §1, §2

[6] = target: DOR (Homo sapiens, UniProt P41143); experiment: High content imaging β-arrestin translocation assay, DOR antagonist (DOR HCS); format: cell-based; settings: antagonist; average; read-out: Potency, Antitarget DOR HCS
Chain of DOR (P41143 whole entry): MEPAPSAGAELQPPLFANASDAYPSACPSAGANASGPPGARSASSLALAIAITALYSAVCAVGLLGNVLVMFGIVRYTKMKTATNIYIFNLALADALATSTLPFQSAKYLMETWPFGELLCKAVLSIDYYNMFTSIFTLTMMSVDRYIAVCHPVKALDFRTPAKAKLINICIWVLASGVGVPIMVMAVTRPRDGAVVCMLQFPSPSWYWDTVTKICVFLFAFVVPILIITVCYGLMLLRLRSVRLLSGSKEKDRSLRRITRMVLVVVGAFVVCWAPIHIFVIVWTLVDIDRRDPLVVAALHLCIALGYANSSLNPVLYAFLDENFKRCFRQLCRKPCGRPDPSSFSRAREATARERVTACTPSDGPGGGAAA
Description: as §1, §2

[7] = target: T1, KOR; experiment: High content imaging β-arrestin translocation assay, KOR antagonist (KOR HCS); format: cell-based
Description: as §1, §2

[8] = target: T1, KOR; experiment: KOR1 DISCOVERX β-Arrestin […] assay, antagonist mode (KOR DRX); format: cell-based
Description: as §1, §2

[9] = antagonist, average, read-out: Potency, Target KOR DRX
[10] = antagonist, average, read-out: Potency, Target KOR HCS

T1 sequence (P41145 whole entry, the tested form may be a part): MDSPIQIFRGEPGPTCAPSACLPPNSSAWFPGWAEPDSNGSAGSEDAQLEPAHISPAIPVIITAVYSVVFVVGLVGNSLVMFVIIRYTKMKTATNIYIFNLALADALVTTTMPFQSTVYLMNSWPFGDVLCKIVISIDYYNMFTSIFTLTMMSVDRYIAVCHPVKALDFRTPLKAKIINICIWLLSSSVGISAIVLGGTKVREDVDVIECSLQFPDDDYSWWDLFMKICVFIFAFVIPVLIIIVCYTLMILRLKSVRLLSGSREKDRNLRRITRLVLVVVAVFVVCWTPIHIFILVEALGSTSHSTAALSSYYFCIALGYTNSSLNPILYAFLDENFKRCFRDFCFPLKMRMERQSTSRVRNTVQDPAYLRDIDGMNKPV

IC50 [8] [µM]	Structure (SMILES)	EC50 [1] [µM]	EC50 [2] [µM]	EC50 [3] [µM]	Emax (%) [3]	Ki [4] [µM]	IC50 [5] [µM]	IC50 [6] [µM]	IC50 [7] [µM]	IC50 [8, 9] [µM]	IC50 [7, 10] [µM]
	COc1ccc(CSc2nnc(-c3ccccn3)n2Cc2ccco2)cc1 [Compound 2{20}]	12.4	> 32	7.7 ± 1.47	~150%	0.028					
	CC(C)c1ccc(CSc2nnc(-c3ccccn3)n2Cc2cccs2)cc1 [Compound 2{34}]	2.2	> 32	3.66	~100%	0.0023					
	COc1ccc(N2CCN(CCNC(=O)Cn3c(=O)c4cccn4c4c(C)ccnc43)CC2)cc1 [1{26}]						> 32	> 32	> 32		
	O=C(Cn1c(=O)c2cccn2c2cccnc21)NCCCN1CCC(Cc2ccccc2)CC1 [Compound 1{22}]						> 32	> 32		4.78	
	COc1ccc(N2CCN(CCCNC(=O)Cn3c(=O)c4cccn4c4ccccc43)CC2)cc1 [1{2}]						> 32	> 32		4.32	15.3
	Cc1ccc(N2CCN(CCCNC(=O)Cn3c(=O)c4cccn4c4c(C)ccnc43)CC2)cc1 [1{7}]						> 32	> 32		0.88	2.28
	O=C(Cn1c(=O)c2cccn2c2cccnc21)NCCCN1CCN(c2ccc3c(c2)OCO3)CC1 [Compound 1{10}]						> 32	> 32		4.23	0.78
	c1ccc(CSc2nnc(-c3ccccn3)n2Cc2cccs2)cc1 [Compound 2{23}]	23.5	> 32	13.8 ± 1.18	~150%	0.138					
	O=C(Cn1c(=O)c2cccn2c2cccnc21)NCCCN1CCN(Cc2ccccc2)CC1 [Compound 1{23}]						> 32	> 32		> 20	21.5
	CN1CCN(CCCNC(=O)Cn2c(=O)c3cccn3c3cccnc32)CC1 [Compound 1{20}]						> 32	> 32		> 20	> 32
	O=C(Cn1c(=O)c2cccn2c2cc(Br)cnc21)NCCCN1CCN(c2ccc3c(c2)OCO3)CC1 [Compound 1{17}]						> 32	> 32		3.11	0.15
	O=C(Cn1c(=O)c2cccn2c2cc(Br)cnc21)NCCCN1CCN(c2ccc(Cl)cc2)CC1 [Compound 1{15}]						5.32	> 32		> 20	> 32
	Fc1cccc(F)c1CSc1nnc(-c2ccccn2)n1Cc1ccco1 [2{41}]	> 32	> 32	> 20		0.055					
	Fc1cccc(F)c1CSc1nnc(-c2ccccn2)n1Cc1cccs1 [Compound 2{42}]	20.9	> 32	> 19		0.078					
	Cc1ccccc1CSc1nnc(-c2ccccn2)n1Cc1ccco1 [Compound 2{35}]	> 30	> 32	> 18.8		0.123					
	Cc1ccnc2c1n1cccc1c(=O)n2CC(=O)NCCCN1CCN(c2ccccc2)CC1 [1{8}]						22.5	> 32		4.95	2.56
	Cc1ccnc2c1n1cccc1c(=O)n2CC(=O)NCCCN1CCN(c2ccc(Cl)cc2)CC1 [Compound 1{6}]						> 32	> 32		0.69	0.07
	c1ccc(CSc2nnc(-c3ccccn3)n2Cc2ccco2)cc1 [Compound 2{22}]	> 32	> 32	> 17.9	Emax not reached	0.155					
	O=C(Cn1c(=O)c2cccn2c2cccnc21)NCCCN1CCN(c2ccc(Cl)cc2)CC1 [Compound 1{11}]						> 32	> 32		5.18	0.096

IC50 [8] [µM]	Structure (SMILES)	EC50 [1] [µM]	EC50 [2] [µM]	EC50 [3] [µM]	Emax (%) [3]	Ki [4] [µM]	IC50 [5] [µM]	IC50 [6] [µM]	IC50 [7] [µM]	IC50 [8, 9] [µM]	IC50 [7, 10] [µM]
	Cc1ccc(N2CCN(CCCNC(=O)Cn3c(=O)c4cccn4c4cccnc43)CC2)cc1 [1{12}]						18.8	> 32		3.68	0.89
	Cc1ccc(CSc2nnc(-c3ccccn3)n2Cc2ccco2)cc1 [Compound 2{12}]	5.21	> 32	6.2 ± 1.26	~150%	0.016					
	Cc1ccc(Cl)cc1N1CCN(CCCNC(=O)Cn2c(=O)c3cccn3c3cccnc32)CC1 [1{24}]						3.98	> 32		> 20	> 32
	COc1ccc(CSc2nnc(-c3ccccn3)n2Cc2cccs2)cc1 [Compound 2{21}]	5.98	> 32	9.62 ± 1.32	~130%	0.0071					
	COc1cccc(CSc2nnc(-c3ccccn3)n2Cc2ccco2)c1 [Compound 2{37}]	> 32	> 32	> 17.6		0.067					
	O=C(Cn1c(=O)c2cccn2c2cccnc21)NCCCN1CCCCC1 [Compound 1{21}]						> 32	> 32		> 20	> 32
	FC(F)(F)c1cc(CSc2nnc(-c3ccccn3)n2Cc2cccs2)ccc1Cl [Compound 2{11}]	1.4	> 32	0.43	~109%	0.003					
	COc1ccc(N2CCN(CCCNC(=O)Cn3c(=O)c4cccn4c4cccnc43)CC2)c(OC)c1 [1{9}]						10.8	> 32		2.65	0.49
	Cc1ccnc2c1n1cccc1c(=O)n2CC(=O)NCCCN1CCN(c2ccc3c(c2)OCO3)CC1 [1{5}]						17.2	> 32		0.43	0.045
	COc1ccc(N2CCN(CCCNC(=O)Cn3c(=O)c4cccn4c4cc(Br)cnc43)CC2)c(OC)c1 [1{16}]						10.2	> 32		2.82	3.02
	Fc1cc(F)cc(CSc2nnc(-c3ccccn3)n2Cc2cccs2)c1 [Compound 2{17}]	> 17.8	> 32	7.2	~150%	0.094					
	Clc1ccccc1CSc1nnc(-c2ccccn2)n1Cc1ccco1 [Compound 2{47}]	11.6	> 32	9.07		0.106					
	COc1ccc(N2CCN(CCCNC(=O)Cn3c(=O)c4cccn4c4c(C)ccnc43)CC2)c(OC)c1 [1{4}]						30.9	> 32		0.19	0.004
	COc1ccc(N2CCN(CCCCNC(=O)Cn3c(=O)c4cccn4c4c(C)ccnc43)CC2)cc1 [1{27}]						> 32	> 32		1.25	0.005
> 20	Cc1cccc(N2CCN(CCNC(=O)Cn3c(=O)c4cccn4c4cccnc43)CC2)c1C [1{25}]							> 32	> 32		
	O=C(Cn1c(=O)c2cccn2c2cccnc21)NCCCN1CCOCC1 [Compound 1{19}]						> 32	> 32		> 20	> 32
	O=C(Cn1c(=O)c2cccn2c2cccnc21)NCCCN1CCN(c2ccccc2)CC1 [Compound 1{13}]						> 32	> 32		> 20	12.7
	COc1ccc(N2CCN(CCCNC(=O)Cn3c(=O)c4cccn4c4cc(Br)cnc43)CC2)cc1 [1{14}]						10.3	> 32		3.05	0.69
	Cc1ccccc1CSc1nnc(-c2ccccn2)n1Cc1cccs1 [Compound 2{36}]	14.5	> 32	> 16		0.068					

From patent US9345703B2, “Kappa opioid receptor effectors and uses thereof” (University of Kansas, priority 2011, dated 2016)
